The source of these data is patent US11786530B2, “Method against severe acute respiratory syndrome coronavirus 2 infection” (National Yang Ming Chiao Tung University, priority 2021, dated 2023).

Experiment [1] relates to SARS-CoV-2. The conditions noted are these: model cell lines; cited from earlier work.
Experiment [2] has as its system SARS-CoV-2 WA strain. The experiment is described as follows: Inhibition of SARS-CoV-2 in infected Vero E6 cells (MTT, OD590) with ZIP delta synergy score. The format is cell-based. The settings on record: Severe acute respiratory syndrome coronavirus 2, Vero C1008, 72 h, read-out: Inhibition rate.

Molecules are shown by their SMILES.

On to `CN(Cc1cnc2nc(N)nc(N)c2n1)c1ccc(C(=O)N[C@@H](CCC(=O)O)C(=O)O)cc1` [MTX, methotrexate], for which, in experiment [1], the “inhibition of SARS-CoV-2 replication” value was “dose-dependent, potent inhibition”. Besides, the inhibition – broadly, how much of the control response was suppressed – at 0.2 µM in experiment [2] (Comparative group 2: MTX 0.2 μM, remdesivir 0 μM, Vero E6 cells, 3 days) amounted to 11.7%.

In the case of `CCC(CC)COC(=O)[C@H](C)N[P@](=O)(OC[C@H]1O[C@@](C#N)(c2ccc3c(N)ncnn23)[C@H](O)[C@@H]1O)Oc1ccccc1` [remdesivir], in experiment [2], the inhibition at 3 µM was 4.57%.
